The IC50 is the midpoint of a concentration-inhibition curve. One may read the IC99 as the concentration needed for an effect of 99%. High values mean weaker potency, low ones greater potency.

IC50, FR and IC99 data for twelve compounds are collected here from ChEMBL document CHEMBL1133056, “Structure-activity relationships of halichondrin B analogues: modifications at C.30-C.38” (Bioorg Med Chem Lett, 2000).

SMILES strings stand for the structures.

The test system of experiment [1] is DLD-1. In words: The compound was tested for cell growth inhibition against DLD-1 human colon cancer cells under continuous exposure conditions for 3-4 days. The class given is functional, cell-based.
The test system of experiment [2] is P388. In words: The compound was tested for susceptibility to P-glycoprotein (PgP) mediated drug efflux using murine P388/VMDRC.04 cells under continuous exposure conditions for 3-4 days. The experiment is classed as functional, cell-based. The note with it: Mus musculus.
For experiment [3], the system named is P388. The experiment in a line: The compound was tested for susceptibility to […] murine P388/S leukemia cells under continuous exposure conditions for 3-4 days. The experiment is classed as functional, cell-based. To be noted: Mus musculus.
For experiment [4], the system named is P388. In words: Fold resistance was calculated as IC50 ratio between retrovirally transformed P388/VMDRC.04 and parental P388/S cells. The experiment is classed as functional, Mus musculus.
Experiment [5] in a line: The compound was tested for its ability to maintain a irreversible mitotic block 10 hr after drug washout using flow cytometric analysis of U937 human histiocytic lymphoma cells. The note with it: U-937, 10 h. The experiment is classed as functional.

In experiment [1], `C=C1C[C@@H]2CC[C@@]34C[C@@H]5O[C@@H]6[C@@H](O[C@H]7CC[C@H](CC(=O)O[C@@H]8C[C@@H]9O[C@H](CO)[C@@H](O)C[C@@H]9O[C@H]8C[C@H]8O[C@@H](CC[C@@H]1O2)C[C@@H](C)C8=C)O[C@@H]7[C@@H]6O3)[C@H]5O4` registered a concentration for half-maximal inhibition (IC50) of 610 nM.
With `C=C1C[C@@H]2CC[C@@]34C[C@@H]5O[C@@H]6[C@@H](O[C@H]7CC[C@H](CC(=O)O[C@@H]8[C@@H](C)[C@@H]9O[C@H](CCO)[C@@H](O)C[C@@H]9O[C@H]8C[C@H]8O[C@@H](CC[C@@H]1O2)C[C@@H](C)C8=C)O[C@@H]7[C@@H]6O3)[C@H]5O4`, the IC50 in experiment [2] stood at 1.6 nM; in experiment [3] it was 1.7 nM; in experiment [1] it was 3.6 nM. In experiment [4], the FR is 9.4. The IC99 in experiment [5] is > 1 µM.
As for `C=C1C[C@@H]2CC[C@@]34C[C@@H]5O[C@@H]6[C@@H](O[C@H]7CC[C@H](CC(=O)O[C@@H]8[C@@H](C)[C@@H]9O[C@@H]%10CCOC%10(O)C[C@@H]9O[C@H]8C[C@H]8O[C@@H](CC[C@@H]1O2)C[C@@H](C)C8=C)O[C@@H]7[C@@H]6O3)[C@H]5O4` (some centres not stated), the IC50 in experiment [2] stood at 6.3 nM; in experiment [3] it was 3.1 nM; in experiment [1], 5.2 nM. For the same compound, the FR in experiment [4] was 2. Further, in experiment [5], the IC99 is 1 µM.
On the same counts, the results for `C=C1C[C@@H]2CC[C@@]34C[C@@H]5O[C@@H]6[C@@H](O[C@H]7CC[C@H](CC(=O)O[C@@H]8[C@@H](C)[C@@H]9O[C@H](CCO)[C@H](O)C[C@@H]9O[C@H]8C[C@H]8O[C@@H](CC[C@@H]1O2)C[C@@H](C)C8=C)O[C@@H]7[C@@H]6O3)[C@H]5O4` are 8.8 nM, 2.2 nM, 4.6 nM, 4 and > 0.88 µM.
On the same counts, the results for `C=C1C[C@@H]2CC[C@@]34C[C@@H]5O[C@@H]6[C@@H](O[C@H]7CC[C@H](CC(=O)O[C@@H]8[C@@H](C)[C@@H]9O[C@H](CCOC)[C@H](O)C[C@@H]9O[C@H]8C[C@H]8O[C@@H](CC[C@@H]1O2)C[C@@H](C)C8=C)O[C@@H]7[C@@H]6O3)[C@H]5O4` are 1.5 nM, 0.55 nM, 1.2 nM, 2.7 and > 0.65 µM.
Taken in the same sequence, the figures for `C=C1C[C@@H]2CC[C@@]34C[C@@H]5O[C@@H]6[C@@H](O[C@H]7CC[C@H](CC(=O)O[C@@H]8[C@@H](C)[C@@H]9O[C@@H]%10CC(O)O[C@@H]%10C[C@@H]9O[C@H]8C[C@H]8O[C@@H](CC[C@@H]1O2)C[C@@H](C)C8=C)O[C@@H]7[C@@H]6O3)[C@H]5O4` (some centres not stated) were 3.8 nM, 1.5 nM, 2.1 nM, 2.5 and > 1 µM.
Regarding `C=C1C[C@@H]2CCC34C[C@@H]5O[C@@H]6[C@@H](O[C@H]7CC[C@H](CC(=O)O[C@@H]8[C@@H](C)[C@@H]9O[C@@H]%10C[C@]%11(C[C@@H]%12O[C@]%13(C[C@H](C)[C@@H]%14O[C@H]([C@@H](O)C[C@@H](O)CO)C[C@@H]%14O%13)C[C@H](C)[C@@H]%12O%11)O[C@@H]%10C[C@@H]9O[C@H]8C[C@H]8O[C@@H](CC[C@@H]1O2)C[C@@H](C)C8=C)O[C@@H]7[C@@H]6O3)[C@H]5O4`, the results for the IC50 in experiment [2], in experiment [3] and in experiment [1] were 1.7 nM, 0.6 nM and 0.74 nM, respectively. Also, the FR in experiment [4] is given as 2.8. For the same compound, the IC99 in experiment [5] was 0.025 µM.
Turning to `C=C1C[C@@H]2CC[C@@]34C[C@@H]5O[C@@H]6[C@@H](O[C@H]7CC[C@H](CC(=O)O[C@@H]8[C@@H](C)[C@@H]9O[C@@H]%10CCO[C@@H]%10C[C@@H]9O[C@H]8C[C@H]8O[C@@H](CC[C@@H]1O2)C[C@@H](C)C8=C)O[C@@H]7[C@@H]6O3)[C@H]5O4`, the IC50 in experiment [2] was 2.7 nM; in experiment [3], 1.3 nM; in experiment [1], 2.6 nM. For the same compound, the FR in experiment [4] was 2.1. For the same compound, the 99% effect concentration (IC99) in experiment [5] is > 1 µM.
Taken in the same sequence, the figures for `CC(=O)O[C@H]1C(=O)[C@@]2(C)[C@H]([C@H](OC(=O)c3ccccc3)[C@]3(O)C[C@H](OC(=O)[C@H](O)[C@@H](NC(=O)c4ccccc4)c4ccccc4)C(C)=C1C3(C)C)[C@]1(OC(C)=O)CO[C@@H]1C[C@@H]2O` [PACLITAXEL] were 170 nM, 16 nM, 27 nM, 11 and 0.23 µM.
On the same counts, the results for `C=C1C[C@@H]2CC[C@@]34C[C@@H]5O[C@@H]6[C@@H](O[C@H]7CC[C@H](CC(=O)O[C@@H]8[C@@H](C)[C@@H]9O[C@H](CO)[C@H](O)C[C@@H]9O[C@H]8C[C@H]8O[C@@H](CC[C@@H]1O2)C[C@@H](C)C8=C)O[C@@H]7[C@@H]6O3)[C@H]5O4` are 8.2 nM, 0.71 nM, 3.4 nM, 12 and 0.22 µM.
In turn, `C=C1C[C@@H]2CC[C@@]34C[C@@H]5O[C@@H]6[C@@H](O[C@H]7CC[C@H](CC(=O)O[C@H]8C[C@@H]9O[C@H](CO)[C@@H](O)C[C@@H]9O[C@H]8C[C@H]8O[C@@H](CC[C@@H]1O2)C[C@@H](C)C8=C)O[C@@H]7[C@@H]6O3)[C@H]5O4` showed an IC50 in experiment [1] of 230 nM.
Turning to `C=C1C[C@@H]2CC[C@@]34C[C@@H]5O[C@@H]6[C@@H](O[C@H]7CC[C@H](CC(=O)O[C@@H]8[C@@H](CC)[C@@H]9O[C@H](CO)[C@@H](O)C[C@@H]9O[C@H]8C[C@H]8O[C@@H](CC[C@@H]1O2)C[C@@H](C)C8=C)O[C@@H]7[C@@H]6O3)[C@H]5O4`, the figures for the IC50 in experiment [2], in experiment [3] and in experiment [1] were 16 nM, 1.6 nM and 6 nM, respectively. Moreover, the FR in experiment [4] is recorded as 10. The compound further gave an IC99 in experiment [5] of 1 µM.
